{"source": "patent US9340574B2", "about": "“Inhibitors of protein tyrosine phosphatases” (Indiana University Research and Technology Corporation, priority 2012, dated 2016)", "key": {"PTP1B": {"molecular_target": "PTP1B (Homo sapiens (Human), UniProt P18031)", "sequence (P18031 whole entry, species assumed)": "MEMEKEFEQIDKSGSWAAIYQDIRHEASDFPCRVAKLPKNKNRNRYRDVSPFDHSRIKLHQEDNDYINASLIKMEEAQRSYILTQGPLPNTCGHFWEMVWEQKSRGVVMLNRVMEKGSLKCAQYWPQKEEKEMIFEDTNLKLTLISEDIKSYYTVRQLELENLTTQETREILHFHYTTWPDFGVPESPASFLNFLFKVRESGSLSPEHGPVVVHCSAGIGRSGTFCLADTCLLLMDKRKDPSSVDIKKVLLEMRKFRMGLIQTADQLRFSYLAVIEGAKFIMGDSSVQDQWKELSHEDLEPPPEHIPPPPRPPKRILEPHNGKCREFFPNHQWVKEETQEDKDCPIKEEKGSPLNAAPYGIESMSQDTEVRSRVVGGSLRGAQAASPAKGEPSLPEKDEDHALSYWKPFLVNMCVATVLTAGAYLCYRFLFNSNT", "assay": "pNPP hydrolysis enzyme assay, PTP1B", "assay_type": "biochemical", "method": "(§1) Enzyme kinetic assay. PTP activity was assayed using p-nitrophenyl phosphate (pNPP) as a substrate in 3,3-dimethylglutarate buffer (50 mM 3,3-dimethylglutarate, pH 7.0, 1 mM EDTA, 150 mM NaCl, 2 mM DTT, 0.1 mg/mL BSA) at 25° C. The assays were performed in 96-well plates. Normally, to determine the IC50 values, the reaction was initiated by the addition of enzyme (final concentration at 10 nM) to a reaction mixture (0.2 mL) containing 2 mM (Km for the substrate) pNPP with various concentrations of inhibitors. The reaction rate was measured using a SpectraMax Plus 384 Microplate Spectrophotometer (Molecular Devices). To determine the mode of inhibition, the reactions were initiated by the addition of PTP-MEG2 to the reaction mixtures (0.2 mL) containing various concentrations of pNPP with different concentrations of the inhibitor 7. Data were fitted using SigmaPlot Enzyme Kinetics Module (Systat Software, Inc.)."}, "PTPμ": {"molecular_target": "PTPμ (Homo sapiens (Human), UniProt P28827)", "sequence (P28827 21-1452)": "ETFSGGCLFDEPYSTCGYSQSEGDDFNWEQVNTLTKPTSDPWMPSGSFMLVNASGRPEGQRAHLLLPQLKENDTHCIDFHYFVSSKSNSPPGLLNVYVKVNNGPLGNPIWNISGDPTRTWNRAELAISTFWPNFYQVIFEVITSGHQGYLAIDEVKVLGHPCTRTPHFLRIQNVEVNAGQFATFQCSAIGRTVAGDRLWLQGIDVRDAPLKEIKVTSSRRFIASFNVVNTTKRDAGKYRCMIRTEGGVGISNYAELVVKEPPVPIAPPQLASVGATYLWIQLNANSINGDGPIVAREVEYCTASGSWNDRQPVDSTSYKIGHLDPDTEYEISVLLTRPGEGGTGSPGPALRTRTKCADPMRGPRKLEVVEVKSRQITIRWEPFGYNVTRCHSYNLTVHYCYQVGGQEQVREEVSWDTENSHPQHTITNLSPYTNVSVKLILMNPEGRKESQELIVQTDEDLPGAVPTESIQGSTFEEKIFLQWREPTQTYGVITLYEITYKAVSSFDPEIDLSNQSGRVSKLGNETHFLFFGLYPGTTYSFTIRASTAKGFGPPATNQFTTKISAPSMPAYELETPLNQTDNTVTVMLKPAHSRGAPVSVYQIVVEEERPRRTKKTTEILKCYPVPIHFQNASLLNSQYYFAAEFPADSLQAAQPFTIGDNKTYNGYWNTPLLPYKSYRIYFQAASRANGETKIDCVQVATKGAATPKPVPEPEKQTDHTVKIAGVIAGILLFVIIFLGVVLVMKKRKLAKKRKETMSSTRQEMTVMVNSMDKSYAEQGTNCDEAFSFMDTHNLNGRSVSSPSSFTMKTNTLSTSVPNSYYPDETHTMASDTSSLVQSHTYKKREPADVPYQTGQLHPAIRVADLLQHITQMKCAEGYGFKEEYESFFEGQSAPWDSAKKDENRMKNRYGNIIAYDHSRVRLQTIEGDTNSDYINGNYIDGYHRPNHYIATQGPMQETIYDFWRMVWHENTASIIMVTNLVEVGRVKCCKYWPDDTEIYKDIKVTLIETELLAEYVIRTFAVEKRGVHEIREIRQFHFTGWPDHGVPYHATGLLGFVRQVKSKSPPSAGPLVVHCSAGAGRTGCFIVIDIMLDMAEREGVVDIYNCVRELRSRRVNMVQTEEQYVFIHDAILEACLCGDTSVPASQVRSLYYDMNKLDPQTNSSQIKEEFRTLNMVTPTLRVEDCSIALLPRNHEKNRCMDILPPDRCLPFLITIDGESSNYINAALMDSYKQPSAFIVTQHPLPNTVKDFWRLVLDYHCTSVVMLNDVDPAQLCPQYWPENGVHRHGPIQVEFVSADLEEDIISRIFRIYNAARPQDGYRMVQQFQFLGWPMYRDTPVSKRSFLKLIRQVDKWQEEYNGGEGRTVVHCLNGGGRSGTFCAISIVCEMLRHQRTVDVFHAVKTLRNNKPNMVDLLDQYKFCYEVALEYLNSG", "assay": "pNPP hydrolysis enzyme assay, PTPμ", "assay_type": "biochemical", "method": "as §1"}, "[1]": {"system": "diet-induced obese C57BL/6 mice", "assay": "Insulin tolerance test in diet-induced obese mice", "assay_type": "in vivo, mouse", "conditions": "5 mg/kg i.p. twice a day", "method": "C57BL/6J mice were fed a high-fat diet for 10 weeks before Compound 7 or vehicle was injected intraperitoneally twice a day at a dose of 5 mg/kg body weight. FIG. 5A depicts insulin tolerance tests (ITT) performed on Day 7 by injecting intraperitoneally a bolus of 0.75 unit/kg of human regular insulin. […] FIG. 5C depicts glucose tolerance tests (GTT) carried out on Day 9 after a bolus of 1 g/kg glucose was injected intraperitoneally. […] FIG. 5E depicts pyruvate tolerance tests (PTT) performed on Day 12 after an injection of 2 g/kg pyruvate solution. […] At the end of 2-week injections of Compound 7, animals were fasted overnight and stimulated with a bolus of 1 unit of human regular insulin or saline via vena cava. Three minutes later, liver, skeletal muscle, and white adipose tissue (WAT) were collected sequentially for insulin signaling analysis. FIG. 5G depicts the phosphorylation of Tyr1162/1163 in insulin receptor (IR) and Ser473 phosphorylation in Akt kinases and the corresponding proteins in the liver, skeletal muscle, and white adipose tissue (WAT) were analyzed by immunoblots.\nTo this end, we intraperitoneally injected Compound 7 into diet-induced obese C57BL/6 mice at a dose of 5 mg/kg twice a day. […] After 7 days of injections, we performed insulin tolerance tests to measure insulin sensitivity in vehicle and Compound 7 treated mice."}}}
{"molecule": "COc1cc(CC(=O)NCC(NC(=O)C(CCCNC(=O)c2cccc(I)c2)NC(=O)C(Cc2ccc(C(F)(F)P(=O)(O)O)cc2)NC(=O)c2ccc(C)c(Br)c2)C(N)=O)ccc1O", "note": "(centres unmarked) [Compound 7]", "values": [{"measurement": "IC50", "setting": "PTP1B; pNPP substrate", "value": 860, "unit": "nM"}, {"measurement": "selectivity for PTP-MEG2 over PTP1B", "setting": "PTP1B; ratio of IC50 values", "value": "more than 10 fold"}, {"measurement": "IC50", "setting": "PTPμ", "value": "> 10000", "unit": "nM"}, {"measurement": "insulin sensitivity in insulin tolerance test", "setting": "[1]; Day 7, at 15 and 60 minutes after 0.75 unit insulin", "value": "significantly improved insulin sensitivity"}, {"measurement": "improvement in insulin tolerance (AUC)", "setting": "[1]; Day 7, vs vehicle", "value": 14, "unit": "%"}]}
